Results as given in PubChem BioAssay AID2060493 (Molecular Pharmacology Branch, DTP, NCI, 2025).

System: 616215-338-R-J1-PDC tumor spheroids, viability
Assay: Anticancer human tumor 616215-338-R-J1-PDC patient-derived colon adenocarcinoma cell line growth inhibition [GQUAD]
Conditions: spheroids with HUVEC and MSC; for IC50: curve of first compound; for viability, T/C: stronger effect = lower value; active = viability on the fitted dose curve at most 10% of control; inactive = the rest
Outline: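 Multi-cell-type spheroids of tumor cells with HUVEC and mesenchymal stem cells, treated with drug combinations. Concentrations descend in half-log steps from near clinical Cmax, or from 10 microM where Cmax is unknown; viability read-out.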

[1] = second compound 0.0316 µM, first compound 0.0316 µM
[2] = second compound 0.0316 µM, first compound 0.1 µM
[3] = second compound 0.0316 µM, first compound 0.316 µM
[4] = second compound 0.0316 µM, first compound 1 µM
[5] = second compound 0.0316 µM, first compound 3.16 µM
[6] = second compound 0.0316 µM, first compound 10 µM
[7] = second compound 0.1 µM, first compound 0.0316 µM
[8] = second compound 0.1 µM, first compound 0.1 µM
[9] = second compound 0.1 µM, first compound 0.316 µM
[10] = second compound 0.1 µM, first compound 1 µM
[11] = second compound 0.1 µM, first compound 3.16 µM
[12] = second compound 0.1 µM, first compound 10 µM
[13] = second compound 0.316 µM, first compound 0.0316 µM
[14] = second compound 0.316 µM, first compound 0.1 µM
[15] = second compound 0.316 µM, first compound 0.316 µM
[16] = second compound 0.316 µM, first compound 1 µM
[17] = second compound 0.316 µM, first compound 3.16 µM
[18] = second compound 0.316 µM, first compound 10 µM
[19] = second compound 1 µM, first compound 0.0316 µM
[20] = second compound 1 µM, first compound 0.1 µM
[21] = second compound 1 µM, first compound 0.316 µM
[22] = second compound 1 µM, first compound 1 µM
[23] = second compound 1 µM, first compound 3.16 µM
[24] = second compound 1 µM, first compound 10 µM
[25] = second compound 3.16 µM, first compound 0.0316 µM
[26] = second compound 3.16 µM, first compound 0.1 µM
[27] = second compound 3.16 µM, first compound 0.316 µM
[28] = second compound 3.16 µM, first compound 1 µM
[29] = second compound 3.16 µM, first compound 3.16 µM
[30] = second compound 3.16 µM, first compound 10 µM
[31] = second compound 10 µM, first compound 0.0316 µM
[32] = second compound 10 µM, first compound 0.1 µM
[33] = second compound 10 µM, first compound 0.316 µM
[34] = second compound 10 µM, first compound 1 µM
[35] = second compound 10 µM, first compound 3.16 µM
[36] = second compound 10 µM, first compound 10 µM
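Note: spheroids exposed to agents for 7 days before readout.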
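Throughout, for viability, T/C: percent viability relative to DMSO vehicle control wells taken as 100%.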

COc1cc(C2c3cc4c(cc3C(OC3OC5COC(C)OC5C(O)C3O)C3COC(=O)C23)OCO4)cc(OC)c1O (stereo unspecified) + CN(C)c1ccc(Nc2c3ccc(NC(=O)CCN4CCCC4)cc3nc3cc(NC(=O)CCN4CCCC4)ccc23)cc1
0.693 µM: IC50 (second compound 0.316 µM)
0.644 µM: IC50 (second compound 3.16 µM)
0.762 µM: IC50 (second compound 1 µM)
0.491 µM: IC50 (second compound 10 µM)
inactive: viability, T/C [1] 99.3% | viability, T/C [2] 103% | viability, T/C [3] 67.8% | viability, T/C [4] 51.9% | viability, T/C [5] 31.9% | viability, T/C [6] 20.7% | viability, T/C [7] 94.7% | viability, T/C [8] 107% | viability, T/C [9] 71.6% | viability, T/C [10] 37.5% | viability, T/C [11] 31% | viability, T/C [12] 18.7% | viability, T/C [13] 100% | viability, T/C [14] 95.6% | viability, T/C [15] 63.4% | viability, T/C [16] 41% | viability, T/C [17] 33.1% | viability, T/C [18] 16.6% | viability, T/C [19] 100% | viability, T/C [20] 91.6% | viability, T/C [21] 58.5% | viability, T/C [22] 44.6% | viability, T/C [23] 34.3% | viability, T/C [24] 14.2% | viability, T/C [25] 96.4% | viability, T/C [26] 85% | viability, T/C [27] 55.9% | viability, T/C [28] 43.6% | viability, T/C [29] 31.6% | viability, T/C [30] 15.9% | viability, T/C [31] 97.2% | viability, T/C [32] 83.2% | viability, T/C [33] 52.6% | viability, T/C [34] 40% | viability, T/C [35] 25.9% | viability, T/C [36] 15%
0.655 µM: IC50 (second compound 0.1 µM)
0.967 µM: IC50 (second compound 0.0316 µM)

COc1cccc2c1C(=O)c1c(O)c3c(c(O)c1C2=O)CC(O)(C(=O)CO)CC3OC1CC(N)C(O)C(C)O1 (stereo unspecified) + CN(C)c1ccc(Nc2c3ccc(NC(=O)CCN4CCCC4)cc3nc3cc(NC(=O)CCN4CCCC4)ccc23)cc1
0.469 µM: IC50 (second compound 1 µM)
inactive: viability, T/C [1] 101% | viability, T/C [2] 88% | viability, T/C [3] 51.7% | viability, T/C [4] 36.2% | viability, T/C [5] 17.7% | viability, T/C [7] 101% | viability, T/C [8] 92.3% | viability, T/C [9] 47.3% | viability, T/C [10] 41.3% | viability, T/C [11] 20.1% | viability, T/C [13] 105% | viability, T/C [14] 90.8% | viability, T/C [15] 49.3% | viability, T/C [16] 38% | viability, T/C [17] 20.1% | viability, T/C [19] 102% | viability, T/C [20] 77.8% | viability, T/C [21] 53.3% | viability, T/C [22] 36% | viability, T/C [23] 19.9% | viability, T/C [25] 97.6% | viability, T/C [26] 87.2% | viability, T/C [27] 46.3% | viability, T/C [28] 45.4% | viability, T/C [29] 19.6% | viability, T/C [31] 101% | viability, T/C [32] 78% | viability, T/C [33] 48.9% | viability, T/C [34] 30.5% | viability, T/C [35] 20.5%
active: viability, T/C [6] 1.14% | viability, T/C [12] 0.23% | viability, T/C [18] 0.36% | viability, T/C [24] 1.11% | viability, T/C [30] 3.39% | viability, T/C [36] 2.68%
0.511 µM: IC50 (second compound 0.1 µM) | IC50 (second compound 3.16 µM)
0.483 µM: IC50 (second compound 0.316 µM)
0.467 µM: IC50 (second compound 0.0316 µM)
0.348 µM: IC50 (second compound 10 µM)

O=c1[nH]cc(F)c(=O)[nH]1 + CN(C)c1ccc(Nc2c3ccc(NC(=O)CCN4CCCC4)cc3nc3cc(NC(=O)CCN4CCCC4)ccc23)cc1
0.455 µM: IC50 (second compound 0.316 µM)
0.383 µM: IC50 (second compound 3.16 µM)
inactive: viability, T/C [1] 98.4% | viability, T/C [2] 89.3% | viability, T/C [3] 66.6% | viability, T/C [4] 39.8% | viability, T/C [5] 36.4% | viability, T/C [6] 32.8% | viability, T/C [7] 95.3% | viability, T/C [8] 94.3% | viability, T/C [9] 58.8% | viability, T/C [10] 38% | viability, T/C [11] 38.1% | viability, T/C [12] 33.9% | viability, T/C [13] 93.9% | viability, T/C [14] 81.2% | viability, T/C [15] 54.5% | viability, T/C [16] 39.6% | viability, T/C [17] 36.7% | viability, T/C [18] 32.8% | viability, T/C [19] 101% | viability, T/C [20] 86.4% | viability, T/C [21] 59.2% | viability, T/C [22] 41.6% | viability, T/C [23] 31.2% | viability, T/C [24] 33.6% | viability, T/C [25] 84.5% | viability, T/C [26] 83.8% | viability, T/C [27] 52.5% | viability, T/C [28] 38% | viability, T/C [29] 32% | viability, T/C [30] 34% | viability, T/C [31] 87.6% | viability, T/C [32] 71.3% | viability, T/C [33] 52.4% | viability, T/C [34] 38.9% | viability, T/C [35] 38.3% | viability, T/C [36] 35.5%
0.505 µM: IC50 (second compound 0.1 µM)
0.663 µM: IC50 (second compound 0.0316 µM)
0.562 µM: IC50 (second compound 1 µM)
0.373 µM: IC50 (second compound 10 µM)
